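Growth conditions: 96-well plates. Treatment: test compound, 48 hours, 5 concentrations. Analysis: linear interpolation between bracketing concentrations; unreached endpoints set to highest concentration. Here, GI50 denotes the concentration required for 50% inhibition of growth. TGI: total growth inhibition.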
Key:
Experiment in all cases: growth of human tumour cells (NCI), 48 h
LXFL 529 NSCLC = tested on: LXFL 529 NSCLC
LOX IMVI melanoma = tested on: LOX IMVI melanoma
DLD-1 colon = tested on: DLD-1 colon
UO-31 renal = tested on: UO-31 renal
SK-MEL-28 melanoma = tested on: SK-MEL-28 melanoma
NCI-H460 lung = tested on: NCI-H460 lung
K-562 leukemia = tested on: K-562 leukemia
HT29 colon = tested on: HT29 colon
OVCAR-5 ovarian = tested on: OVCAR-5 ovarian
NCI/ADR-RES ovarian = tested on: NCI/ADR-RES ovarian

| Compound | TGI (LXFL 529 NSCLC) [µM] | TGI (LOX IMVI melanoma) [µM] | TGI (DLD-1 colon) [µM] | TGI (UO-31 renal) [µM] | TGI (SK-MEL-28 melanoma) [µM] | TGI (NCI-H460 lung) [µM] | TGI (K-562 leukemia) [µM] | TGI (HT29 colon) [µM] | TGI (OVCAR-5 ovarian) [µM] | GI50 (NCI/ADR-RES ovarian) [µM] | TGI (NCI/ADR-RES ovarian) [µM] | GI50 (LOX IMVI melanoma) [µM] | GI50 (UO-31 renal) [µM] | GI50 (SK-MEL-28 melanoma) [µM] | GI50 (NCI-H460 lung) [µM] | GI50 (K-562 leukemia) [µM] | GI50 (HT29 colon) [µM] | GI50 (OVCAR-5 ovarian) [µM] |
| --- | --- | --- | --- | --- | --- | --- | --- | --- | --- | --- | --- | --- | --- | --- | --- | --- | --- | --- |
| NC1=NCC(c2ccccn2)C1c1ccc(F)cc1 (stereo not drawn) | > 100 | > 100 | > 100 | > 100 | > 100 | > 100 | > 100 | > 100 | > 100 |  |  |  |  |  |  |  |  |  |
| CCCC(CCC)Oc1ccc(CCCC2=C(O)c3ccccc3C(=O)C2=O)cc1 |  | 10.5 |  | 13.8 | 21.7 | 11.1 | 10.7 | 17.9 | 25.8 | 5.36 | 22.5 | 3.34 | 2.69 | 10.1 | 3.03 | 3.31 | 6.2 | 11.8 |
| Oc1cc2c(cc1C(c1ccc3c(c1)OCO3)N1CCN(C(c3ccc4c(c3)OCO4)c3cc4c(cc3O)OCO4)CC1)OCO2 (stereo not drawn) |  | 18.7 |  | 29.3 | 8.46 | > 100 | 65.1 | 18.8 | 32.6 |  | 55.4 |  |  |  |  |  |  |  |
| Cc1ccccc1NC(=O)C(=O)CC(=O)C1CCOC1=O (stereo not drawn) | > 100 | > 100 | > 100 | > 100 | > 100 | > 100 | > 100 |  | > 100 |  |  |  |  |  |  |  |  |  |
| CC(C)C[C@H]1C(=O)N2CCC[C@H]2[C@]2(O)O[C@](NC(=O)[C@@H]3C=C4c5cccc6[nH]c(Br)c(c56)C[C@H]4N(C)C3)(C(C)C)C(=O)N12 |  | > 100 |  | > 100 | > 100 | > 100 | > 100 | > 100 | > 100 |  | > 100 |  |  |  |  |  |  |  |
| CNC12C3C4C1C1C2C3C41C(=O)N[C@H](C(=O)N(C)[C@H](C[C@@H](OC(C)=O)c1nc(C(=O)N[C@@H](Cc2ccccc2)C[C@H](C)C(=O)OC)cs1)C(C)C)C1CC1 (stereo partly drawn) |  | > 15 |  | > 15 | > 15 | > 15 | > 15 | 1.28 | > 15 | > 15 | > 15 | 0.234 | 2.25 | 2.13 | 0.517 | 0.0667 | 0.257 | 2.2 |
| COc1ccc(C2N3CCCCC3[C@@H]3c4[nH]c5ccccc5c4CCN23)c(OC)c1 (stereo partly drawn) | 49.9 |  | > 100 | 74.1 | 36.9 | 50.2 | > 100 | 32.6 | 79.7 |  |  |  |  |  |  |  |  |  |
| O=C1C(CO)=C[C@@H](O)[C@H]2O[C@@H]12 |  | 65.4 |  | > 100 | > 100 | > 100 | > 100 | > 100 | > 100 |  | > 100 |  |  |  |  |  |  |  |
| Cn1ccc2c3c(=O)cc[nH]c3ccc21 |  | > 100 |  | > 100 | > 100 | > 100 | > 100 | > 100 | > 100 | > 100 | > 100 | > 100 | > 100 | 12.7 | > 100 | > 100 | > 100 | > 100 |
| COc1ccc(C2CC(c3cccc(OC)c3)=NN2C(=O)c2cc(OC)c(OC)c(OC)c2)cc1 (stereo not drawn) |  | > 100 |  | > 100 | > 100 | > 100 | > 20.5 | > 100 | > 100 | 1.55 | > 21.1 | 4.26 | 1.59 | 12.5 | 1.75 | 0.431 | 0.507 | > 21.2 |

Reference: PubChem BioAssay (NCI)
